Data on 21 compounds can be found in ChEMBL document CHEMBL4251696, “Discovery of a Stress-Activated Protein Kinase Inhibitor for Lymphatic Filariasis” (ACS Med Chem Lett, 2018).

For series [1], the system named is Brugia malayi. The series can be described thus: Inhibition of recombinant Brugia malayi MPK1a at 1 uM using FAM-p38tide as substrate by IMAP assay relative to control.
A short description of series [2]: Inhibition of recombinant Brugia malayi MPK1a using FAM-p38tide as substrate by IMAP assay.
Series [3] concerns the target Mitogen-activated protein kinase 14 (Homo sapiens, UniProt Q16539). The series can be described thus: Inhibition of human p38alpha using FAM-p38tide as substrate by IMAP assay.
Series [4] has as its system Brugia malayi. The series can be described thus: Antifilarial activity against Brugia malayi microfilaria assessed as increase in copper-induced reduction in parasite motility at 0.1 to 1 uM measured daily for 5 days. In kind it is functional, organism-based.
Series [5] deals with Brugia malayi. The series can be described thus: Antifilarial activity against adult Brugia malayi assessed as increase in copper-induced reduction in parasite motility at 0.1 to 1 uM measured daily for 5 days. The class given is functional, organism-based.
Series [6] can be described thus: Stability in human microsomes assessed as parent compound remaining after 1 hr. Particulars: read-out: Stability. In kind it is ADME, Microsome.
Series [7] in a line: Stability in mouse microsomes assessed as parent compound remaining after 1 hr. Particulars: read-out: Stability. The class given is ADME, Microsome.
Series [8] concerns the target CYP3A4 (Homo sapiens, UniProt P08684). As to the kind of experiment: Inhibition of CYP3A4 (unknown origin) at 5 uM relative to control. The class given is ADME.
The target of series [9] is CYP2C9 (Homo sapiens, UniProt P11712). The series can be described thus: Inhibition of CYP2C9 (unknown origin) at 5 uM relative to control. In kind it is ADME.
Series [10] has as its target CYP2D6 (Homo sapiens, UniProt P10635). The series can be described thus: Inhibition of CYP2D6 (unknown origin) at 5 uM relative to control. The class given is ADME.
For series [11], the target named is CYP2C19 (Homo sapiens, UniProt P33261). The series can be described thus: Inhibition of CYP2C19 (unknown origin) at 5 uM relative to control. The class given is ADME.
Series [12] addresses T1, CYP1A2 (Homo sapiens, UniProt P05177).
T1 sequence (P05177 whole entry): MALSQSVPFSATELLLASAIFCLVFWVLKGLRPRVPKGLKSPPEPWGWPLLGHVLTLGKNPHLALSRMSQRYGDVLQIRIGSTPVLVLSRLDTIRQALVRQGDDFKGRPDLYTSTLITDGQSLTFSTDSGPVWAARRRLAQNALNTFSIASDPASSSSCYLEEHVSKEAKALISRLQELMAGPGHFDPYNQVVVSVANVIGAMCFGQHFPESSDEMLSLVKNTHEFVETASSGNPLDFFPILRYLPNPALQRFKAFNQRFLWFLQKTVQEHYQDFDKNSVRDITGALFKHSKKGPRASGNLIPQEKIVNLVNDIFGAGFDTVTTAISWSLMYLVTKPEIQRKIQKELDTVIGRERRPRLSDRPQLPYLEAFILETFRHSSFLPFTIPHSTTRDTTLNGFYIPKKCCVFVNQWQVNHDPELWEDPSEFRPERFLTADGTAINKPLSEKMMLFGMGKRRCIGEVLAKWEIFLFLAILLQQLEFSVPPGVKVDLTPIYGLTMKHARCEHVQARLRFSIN
As to the kind of experiment: Inhibition of CYP1A2 (unknown origin) at 5 uM relative to control. The class given is ADME.

Series [13] is described as follows: Cmax in mouse at 30 mg/kg, po. The class given is ADME, organism-based. On the set-up: dose 30 mg/kg, route oral. Particulars: in vivo.
Series [14] in a line: Tmax in mouse at 30 mg/kg, po. The class given is ADME, organism-based. Particulars: in vivo.
Series [15] can be described thus: AUC in mouse at 30 mg/kg, po. In kind it is ADME, organism-based. Particulars: in vivo.
Series [16] concerns Mus musculus. As to the kind of experiment: Time at which plasma concentration stays above in vitro IC50 for Brugia malayi MPK1a in mouse at 30 mg/kg, po. The class given is ADME, organism-based. Particulars: in vivo.
Series [17] in a line: Protein binding in mouse plasma. In kind it is ADME, cell-free. Particulars: read-out: PPB (converted).
The nature of series [18]: Ratio of unbound Cmax in mouse at 30 mg/kg, po to IC50 for Brugia malayi MPK1a. In kind it is ADME, organism-based. Particulars: in vivo.
Series [19] addresses Mitogen-activated protein kinase 10 (Homo sapiens) (UniProt P53779). As to the kind of experiment: Inhibition of human JNK3 FAM-EGFR-derived peptide as substrate by IMAP assay.
A short description of series [20]: Inhibition of sodium arsenate activated N-terminal GST-tagged Brugia malayi MPK1 expressed in HEK293F cells using FAM-p38tide as substrate by IMAP assay.

The structures appear in SMILES notation. Calls of active or inactive are those of the source. The calls are words filed in the database; no cut-off is given here.

Sequence of Mitogen-activated protein kinase 10 (Homo sapiens) (P53779 whole entry, looked up): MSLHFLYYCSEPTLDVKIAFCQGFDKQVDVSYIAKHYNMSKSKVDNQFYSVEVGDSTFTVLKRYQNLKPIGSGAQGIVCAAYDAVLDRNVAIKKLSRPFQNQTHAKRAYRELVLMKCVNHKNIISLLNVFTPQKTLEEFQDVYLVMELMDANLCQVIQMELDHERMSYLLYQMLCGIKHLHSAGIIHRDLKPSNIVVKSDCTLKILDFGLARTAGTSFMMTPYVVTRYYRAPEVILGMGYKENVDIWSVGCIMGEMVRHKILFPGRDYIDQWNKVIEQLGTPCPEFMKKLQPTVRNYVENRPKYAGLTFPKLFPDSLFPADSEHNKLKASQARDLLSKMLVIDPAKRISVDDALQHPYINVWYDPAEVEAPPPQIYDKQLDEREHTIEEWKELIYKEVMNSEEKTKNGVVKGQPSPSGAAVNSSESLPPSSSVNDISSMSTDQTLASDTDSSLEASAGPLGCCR
Sequence of CYP2C19 (P33261 whole entry): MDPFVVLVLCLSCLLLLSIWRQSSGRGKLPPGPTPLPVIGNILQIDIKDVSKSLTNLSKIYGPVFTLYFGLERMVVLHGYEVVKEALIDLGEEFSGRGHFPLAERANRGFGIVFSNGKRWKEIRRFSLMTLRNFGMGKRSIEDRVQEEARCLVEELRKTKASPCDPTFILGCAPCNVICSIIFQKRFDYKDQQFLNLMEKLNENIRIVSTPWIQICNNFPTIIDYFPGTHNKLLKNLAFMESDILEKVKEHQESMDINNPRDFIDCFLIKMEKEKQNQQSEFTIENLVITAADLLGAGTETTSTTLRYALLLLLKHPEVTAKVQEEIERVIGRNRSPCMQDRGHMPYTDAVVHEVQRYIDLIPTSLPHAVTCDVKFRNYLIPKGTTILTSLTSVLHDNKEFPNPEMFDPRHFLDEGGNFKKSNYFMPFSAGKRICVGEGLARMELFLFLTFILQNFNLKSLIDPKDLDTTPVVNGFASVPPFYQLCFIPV
Sequence of CYP3A4 (P08684 whole entry): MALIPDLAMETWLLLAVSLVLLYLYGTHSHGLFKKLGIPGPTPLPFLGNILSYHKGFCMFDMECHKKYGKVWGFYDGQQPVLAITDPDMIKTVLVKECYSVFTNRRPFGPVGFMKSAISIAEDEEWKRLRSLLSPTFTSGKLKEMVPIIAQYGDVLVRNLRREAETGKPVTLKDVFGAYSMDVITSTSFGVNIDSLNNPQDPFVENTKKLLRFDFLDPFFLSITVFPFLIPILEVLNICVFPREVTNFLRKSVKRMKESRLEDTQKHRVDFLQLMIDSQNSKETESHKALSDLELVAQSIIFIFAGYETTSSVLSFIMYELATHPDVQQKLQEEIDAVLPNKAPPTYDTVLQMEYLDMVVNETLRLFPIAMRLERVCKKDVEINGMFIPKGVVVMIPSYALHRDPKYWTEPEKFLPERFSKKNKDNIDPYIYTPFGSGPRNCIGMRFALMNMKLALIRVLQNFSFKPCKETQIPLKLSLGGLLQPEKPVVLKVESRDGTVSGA
Sequence of CYP2C9 (P11712 whole entry): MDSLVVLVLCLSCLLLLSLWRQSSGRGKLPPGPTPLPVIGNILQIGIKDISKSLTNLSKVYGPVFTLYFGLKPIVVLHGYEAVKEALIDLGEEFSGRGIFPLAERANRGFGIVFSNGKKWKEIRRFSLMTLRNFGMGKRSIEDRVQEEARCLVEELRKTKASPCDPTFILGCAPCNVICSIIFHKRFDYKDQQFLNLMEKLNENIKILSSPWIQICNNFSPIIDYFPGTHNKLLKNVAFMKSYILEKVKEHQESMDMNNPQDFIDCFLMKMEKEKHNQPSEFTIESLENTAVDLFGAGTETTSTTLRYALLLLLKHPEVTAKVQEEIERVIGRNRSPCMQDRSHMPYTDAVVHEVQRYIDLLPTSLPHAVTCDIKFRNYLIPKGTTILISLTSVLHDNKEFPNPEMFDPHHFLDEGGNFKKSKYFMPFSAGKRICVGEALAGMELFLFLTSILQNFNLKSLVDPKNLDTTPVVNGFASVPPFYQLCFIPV
Sequence of CYP2D6 (P10635 whole entry): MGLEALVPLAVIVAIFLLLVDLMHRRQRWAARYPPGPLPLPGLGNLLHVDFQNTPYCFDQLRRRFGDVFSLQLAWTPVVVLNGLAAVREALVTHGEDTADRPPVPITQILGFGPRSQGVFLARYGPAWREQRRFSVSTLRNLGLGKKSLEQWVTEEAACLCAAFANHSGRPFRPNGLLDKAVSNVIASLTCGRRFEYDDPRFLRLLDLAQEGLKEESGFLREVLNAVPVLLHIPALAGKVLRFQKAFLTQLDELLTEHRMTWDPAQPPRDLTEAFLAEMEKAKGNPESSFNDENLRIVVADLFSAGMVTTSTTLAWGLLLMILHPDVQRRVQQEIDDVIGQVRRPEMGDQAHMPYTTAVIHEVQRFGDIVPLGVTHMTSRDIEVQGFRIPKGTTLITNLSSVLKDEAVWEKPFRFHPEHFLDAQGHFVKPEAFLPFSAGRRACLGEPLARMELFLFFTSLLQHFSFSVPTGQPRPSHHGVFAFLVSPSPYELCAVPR
Sequence of Mitogen-activated protein kinase 14 (Q16539 whole entry): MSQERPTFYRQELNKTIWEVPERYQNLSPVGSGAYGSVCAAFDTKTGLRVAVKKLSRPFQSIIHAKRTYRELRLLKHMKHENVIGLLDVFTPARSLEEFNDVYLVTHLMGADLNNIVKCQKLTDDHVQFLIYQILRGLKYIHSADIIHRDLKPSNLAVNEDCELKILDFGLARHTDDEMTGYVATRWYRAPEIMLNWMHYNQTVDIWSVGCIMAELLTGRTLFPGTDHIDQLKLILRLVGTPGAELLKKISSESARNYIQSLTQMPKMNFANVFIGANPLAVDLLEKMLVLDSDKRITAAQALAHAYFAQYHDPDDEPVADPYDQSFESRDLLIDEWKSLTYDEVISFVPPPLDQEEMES

A word on the inhibition: it is how much of the control response was suppressed. Take `Cc1onc(-c2ccccc2)c1-c1ccnc(NC2CCCN(C(=O)OC(C)(C)C)C2)n1` (racemic): the inhibition in series [1] is 45%.

The IC50 is the concentration that inhibits the measured activity by half. As to `Cc1onc(-c2ccccc2)c1-c1ccnc(N[C@H]2CCN(C(=O)OC(C)(C)C)C2)n1`, the inhibition in series [1] came to 0%. Also, in series [2], the IC50 turned out to be 360 nM.

One may read the Cmax as the highest concentration seen after dosing. The Tmax is the time at which the peak concentration occurs. One may read the AUC as the area under the concentration-time curve, a measure of exposure. With `CC(=O)N[C@H]1CC[C@H](Nc2nccc(-c3c(-c4ccccc4)noc3C)n2)CC1`, in [1], the inhibition was 93%. The figures for the 50% inhibitory concentration (IC50) in series [2], in series [3] and in series [19] were 24 nM, 26 nM and 170 nM, respectively. Further, the outcome in series [4] and in [5] was Active. For the same compound, the remaining at 1 h in series [6] and in series [7] was 89% throughout. Also, the inhibition at 5 µM in [8] was 51%; in [9], 59%; in series [10] it was 32%; in series [11], 76%; in series [12] it was 29%. The compound further displayed a Cmax in series [13] of 2960 nM. Also, in [14], the Tmax amounted to 30 min. The AUC in series [15] is 5.3 µM·h. Moreover, the Time in [16] came to 8 h. The fraction unbound in series [17] is 0.08. The Ratio in [18] turned out to be 10.

For the compound `CC(=O)N1CC[C@@H](Nc2nccc(-c3c(-c4ccccn4)noc3C)n2)C1`, the inhibition in series [1] is 7%.

Consider `Cc1onc(-c2ccccc2)c1-c1ccnc(N[C@@H]2CCNC2)n1`, for which the inhibition in series [1] worked out at 64%. The 50% inhibitory concentration (IC50) in series [2] came out at 700 nM.

With `Cc1ccc(-n2nc(C(C)(C)C)cc2NC(=O)Nc2ccc(OCCN3CCOCC3)c3ccccc23)cc1` [DORAMAPIMOD], the 50% inhibitory concentration (IC50) in [20] turned out to be 140 nM.

In series [20], `OCCC#Cc1nc(-c2ccc(F)cc2)c(-c2ccncc2)n1CCCc1ccccc1` [RWJ-67657] came in with a half-inhibitory concentration (IC50) of 120 nM.

Consider `Cc1onc(-c2ccccc2)c1-c1ccnc(N[C@H]2CC[C@@H](NC(=O)OC(C)(C)C)CC2)n1`, for which, in series [1], the inhibition stood at 90%. Also, in series [2], the IC50 stood at 94 nM.

Turning to `Cc1onc(-c2ccccc2)c1-c1ccnc(N[C@@H]2CCN(S(C)(=O)=O)C2)n1`, the inhibition in [1] was 70%. Also, the half-inhibitory concentration (IC50) in [2] is 520 nM.

For the compound `Cc1onc(-c2ccccc2)c1-c1ccnc(NCCCNC(=O)OC(C)(C)C)n1`, the inhibition in series [1] was 45%.

In the case of `CC(=O)N1CC[C@@H](Nc2nccc(-c3c(-c4ccccc4)noc3C)n2)C1`, the inhibition in series [1] worked out at 87%. For the same compound, the half-maximal inhibitory concentration (IC50) in [2] came to 130 nM.

On to `Cc1onc(-c2ccccc2)c1-c1ccnc(N[C@@H]2CCN(C(=O)OC(C)(C)C)C2)n1`, for which, in [1], the inhibition is 78%.

Consider `Cc1onc(-c2ccccc2)c1-c1ccnc(N[C@@H]2CCN(C(=O)c3ccccc3)C2)n1`, for which, in series [1], the inhibition is 12%.

As to `Cc1onc(-c2ccccc2)c1-c1ccnc(N[C@H]2CC[C@H](NC(=O)OC(C)(C)C)CC2)n1`, the inhibition in series [1] amounted to 83%. Further, the IC50 in series [2] stood at 200 nM.

For `CC(=O)N1CC[C@@H](Nc2nccc(-c3c(-c4ccccc4)noc3C(F)(F)F)n2)C1`, the inhibition in series [1] was 28%.

Turning to `C[S+]([O-])c1ccc(-c2nc(-c3ccc(F)cc3)c(-c3ccncc3)[nH]2)cc1` (stereo unspecified) [SB-203580], the 50% inhibitory concentration (IC50) in [20] amounted to 220 nM.

On to `Cc1onc(-c2ccccc2)c1-c1ccnc(NCCNC(=O)OC(C)(C)C)n1`, for which the inhibition in series [1] came out at 0%.

On to `CC(=O)N1CC[C@@H](Nc2nccc(-c3c(-c4cccnc4)noc3C)n2)C1`, for which the inhibition in series [1] came to 3%.

Consider `Cc1onc(-c2ccccc2)c1-c1ccnc(NC2CCN(C(=O)OC(C)(C)C)CC2)n1`, for which the inhibition in series [1] is 0%.

In the case of `Cc1onc(-c2ccccc2)c1-c1ccnc(N[C@@H]2CCN(S(=O)(=O)c3ccccc3)C2)n1`, in [1], the inhibition stood at 44%.

Consider `CC(=O)N[C@H]1CC[C@@H](Nc2nccc(-c3c(-c4ccccc4)noc3C)n2)CC1`, for which the inhibition in [1] stood at 91%. The half-maximal inhibitory concentration (IC50) in series [2] was found to be 94 nM.
